Drawing on patent publication EP4647433A1, “SHP2 INHIBITOR AND USES THEREOF” (Kanaph Therapeutics Inc., priority 2023, dated 2024), this text covers IC50 for 11 compounds.

One assay deals with T1, SHP2 (Homo sapiens, UniProt Q06124).
T1 construct: SHP2 (full length, diluted to 100 pM final concentration in reaction buffer, BPS bioscience, US); purchased BPS bioscience, US
T1 sequence (Q06124 1-593): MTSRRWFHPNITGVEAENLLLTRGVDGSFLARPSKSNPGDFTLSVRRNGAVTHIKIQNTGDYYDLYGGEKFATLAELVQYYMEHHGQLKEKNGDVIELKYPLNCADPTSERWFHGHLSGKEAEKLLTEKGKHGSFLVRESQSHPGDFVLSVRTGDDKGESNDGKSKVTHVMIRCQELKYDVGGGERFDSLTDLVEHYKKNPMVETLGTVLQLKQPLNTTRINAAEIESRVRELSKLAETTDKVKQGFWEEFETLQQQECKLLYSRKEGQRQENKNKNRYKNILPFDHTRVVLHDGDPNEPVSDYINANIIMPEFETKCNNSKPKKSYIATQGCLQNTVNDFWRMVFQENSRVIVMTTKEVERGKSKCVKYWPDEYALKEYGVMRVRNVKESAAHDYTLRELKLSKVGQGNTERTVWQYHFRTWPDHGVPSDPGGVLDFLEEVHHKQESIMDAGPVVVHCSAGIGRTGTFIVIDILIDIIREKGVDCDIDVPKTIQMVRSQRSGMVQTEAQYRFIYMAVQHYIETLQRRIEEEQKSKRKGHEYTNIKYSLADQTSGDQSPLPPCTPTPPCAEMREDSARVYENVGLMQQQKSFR
As to the kind of experiment: Phosphatase assay (PTPase assay, DiFMUP substrate). In kind it is biochemical. Conditions: full length SHP2 100 pM activated with SHP2 activating peptide, DiFMUP 80 µM, 2 hours; read-out: PTPase assay (IC50). On the procedure: IC50 values were measured using 6,8-difluoro-4-methylumbelliferyl phosphate (DiFMUP) as a substrate. The reaction was performed in a 384-well plate, and fluorescence measurement values were obtained using an EnVision plate reader from PerkinElmer.
SHP2 (full length, diluted to 100 pM final concentration in reaction buffer, BPS bioscience, US) was incubated with the SHP2 activating peptide in reaction buffer (60 mM HEPES (pH 7.2), 75 mM NaCl, 75 mM KCl, 1 mM EDTA, 5 mM DTT, 0.05% P-20) for 30 minutes to activate SHP2. After activation, DMSO [1% (V/V) or the compound according to the Examples (concentration ranging from 0.6 nM to 10 µM)] was added. As a positive control group, the selective SHP2 inhibitors SHP099 (6-(4-amino-4-methylpiperidin-1-yl)-3-(2,3-dichlorophenyl)pyrazin-2-amine, FOCUS bioscience, Austrailia; concentration ranging from 0.6 nM to 10 µM) and TNO155 ((3S,4S)-8-(6-amino-5-((2-amino-3-chloropyridin-4-yl)thio)pyrazin-2-yl)-3-methyl-2-oxa-8-azaspiro[4.5]decan-4-amine, Chemietek, US; concentration ranging from 0.6 nM to 10 µM) were used. [drawing 184]
DiFMUP (80 µM) was added to the reaction and incubated for a total of 2 hours to allow for the reaction to proceed. Thereafter, fluorescence (340 nm excitation, 450 nm emission) values were measured. IC50 values were obtained using Graphad's Prism from the measured values depending on the concentration.
In the phosphatase assay (PTPase assay), when an IC50 value was 100 nM or more, + was indicated, when an IC50 value was 3 nM or more and less than 100 nM, ++ was indicated, and when an IC50 value was less than 3 nM, +++ was indicated.

Another assay relates to H358 cells. Briefly: Cell viability (3D spheroid, 3D CellTiter-Glo). The class given is cell-based. The conditions noted are these: Homo sapiens, NCI-H358, 120 h; H358 spheroids, 5 days treatment. On the procedure:
Human non-small cell lung cancer cell line H358 cells were purchased from the Korean Cell Line Bank. Cancer cell lines were cultured in the recommended RPMI-1640 medium supplemented with 10% fetal bovine serum (FBS) and 1% penicillin/streptomycin. Monolayer-cultured cancer cell lines were detached by treatment with Trypsin/EDTA, and 100 µL of cell suspension containing 4 x 10^3 cells was each dispensed into SPL3D™ Cell Floater, 96-well round plate, through cell line counting. After culturing for 72 hours to form spheroid, the cells were individually treated with the compounds according to the Examples, which had been serially diluted (minimum 1.5 nM, maximum 10 µM in concentration), and then cultured in a cell incubator for 5 days. To analyze cell viability, the cells were treated with 50 uL of 3D CellTiter-Glo, stirred for 5 minutes at 500 rpm in a plate shaker from Thermo Fisher Scientific, and incubated for 25 minutes at room temperature. Then, the luminescent values were measured using a Varioskan equipment from Thermo Fisher Scientific. IC50 values were obtained using GraphPad's Prism from the measured values depending on the concentration.
In the cell viability assay, when an IC50 value was 50 nM or more, + was indicated, when an IC50 value was 10 nM or more and less than 50 nM, ++ was indicated, and when an IC50 value was less than 10 nM, +++ was indicated.

One may read the IC50 as the concentration that inhibits the measured activity by half.

Turning to `CC(C)(C)Cn1cnc2ccc(Sc3cnc(N4CCC5(CC4)Cc4ncsc4[C@H]5N)cn3)c(Cl)c2c1=O` [Example 5, (S)-6-((5-(6-amino-4,6-dihydrospiro[cyclopenta[d]thiazole-5,4'-piperidin]-1'-yl)pyrazin-2-yl)thio)-5-chloro-3-neopentylquinazolin-4(3H)-one], the IC50 on SHP2 is under 3 nM.
Consider `C[C@@H]1OCC2(CCN(c3cnc(Sc4ccc5ncn(Cc6ccccc6)c(=O)c5c4Cl)c(N)n3)CC2)[C@@H]1N` [Example 12, 6-((3-amino-5-((3S,4S)-4-amino-3-methyl-2-oxa-8-azaspiro[4.5]decan-8-yl)pyrazin-2-yl)thio)-3-benzyl-5-chloroquinazolin-4(3H)-one], for which, on SHP2, the IC50 was in the range of 3 to 100 nM.
For the compound `CC1(CN)CCN(c2cnc(Sc3ccc4ncn(Cc5ccccc5)c(=O)c4c3Cl)c(N)n2)CC1` [Example 13, 6-((3-amino-5-(4-(aminomethyl)-4-methylpiperidine-1-yl)pyrazin-2-yl)thio)-3-benzyl-5-chloroquinazolin-4(3H)-one], the IC50 at SHP2 lay within 3 to 100 nM.
In turn, `Cn1ccc2ccc(Sc3cnc(N4CCC5(CC4)Cc4ncsc4[C@H]5N)cn3)c(Cl)c2c1=O` [Example 16, (S)-7-((5-(6-amino-4,6-dihydrospiro[cyclopenta[d]thiazole-5,4'-pineridin]-1'-yl)pyrazin-2-yl)thio)-8-chloro-2-methylisoquinolin-1(2H)-one] came in with a 50% inhibitory concentration (IC50) in the assay with H358 cells of under 10 nM.
Turning to `COC(F)(F)Cn1cnc2ccc(Sc3cnc(N4CCC5(CC4)CO[C@@H](C)[C@H]5N)cn3)c(Cl)c2c1=O` [Example 19, 6-((5-((3S,4S)-4-amino-3-methyl-2-oxa-8-azaspiro[4.5]decan-8-yl)pyrazin-2-yl)thio)-5-chloro-3-(2,2-difluoro-2-methoxyethyl)quinazolin-4(3H)-one], the half-inhibitory concentration (IC50) on SHP2 is under 3 nM.
Turning to `COC1(Cn2cnc3ccc(Sc4cnc(N5CCC6(CC5)CO[C@@H](C)[C@H]6N)cn4)c(Cl)c3c2=O)CC1` [Example 20, 6-((5-((3S,4S)-4-amino-3-methyl-2-oxa-8-azaspiro[4.5]decan-8-yl)pyrazin-2-yl)thio)-5-chloro-3-((1-methoxycyclopropyl)methyl)quinazolin-4(3H)-one], at SHP2, the concentration for half-maximal inhibition (IC50) lay in the range of 3 to 100 nM.
For `C[C@@H]1OCC2(CCN(c3cnc(Sc4ccc5ncn(CC(C)(F)F)c(=O)c5c4Cl)cn3)CC2)[C@@H]1N` [Example 21, 6-((5-((3S,4S)-4-amino-3-methyl-2-oxa-8-azaspiro[4.5]decan-8-yl)pyrazin-2-yl)thio)-5-chloro-3-(2,2-difluoropropyl)quinazolin-4(3H)-one], the IC50 at SHP2 was under 3 nM.
Still for that read-out and setting: the same measure for `COCCn1cnc2ccc(Sc3cnc(N4CCC5(CC4)Oc4ccccc4[C@H]5N)cn3)c(Cl)c2c1=O` [Example 22, (R)-6-((5-(3-amino-3H-spiro[benzofuran-2,4'-piperidin]-1'-yl)pyrazin-2-yl)thio)-5-chloro-3-(2-methoxyethyl)quinazolin-4(3H)-one]: 3 to 100 nM.
In the assay on H358 cells, `N[C@@H]1c2ccccc2CC12CCN(c1cnc(Sc3ccc4ncn(-c5ccccc5)c(=O)c4c3Cl)cn1)CC2` [Example 30, (S)-6-((5-(1-amino-1,3-dihydrospiro[indene-2,4'-piperidin]-1'-yl)pyrazin-2-yl)thio)-5-chloro-3-phenylquinazolin-4(3H)-one] came in with an IC50 of under 10 nM.
Compound `COC(C)(C)Cn1cnc2ccc(Sc3cnc(N4CCC5(CC4)Cc4scnc4[C@H]5N)cn3)c(Cl)c2c1=O` [Example 33, (S)-6-((5-(4-amino-4,6-dihydrospiro[cyclopenta[d]thiazole-5,4'-piperidin]-1'-yl)pyrazin-2-yl)thio)-5-chloro-3-(2-methoxy-2-methylpropyl)quinazolin-4(3H)-one] displayed an IC50 with H358 cells of 10 to 50 nM.
On to `N[C@@H]1c2scnc2CC12CCN(c1cnc(Sc3ccc4ncn(-c5ccccc5)c(=O)c4c3Cl)cn1)CC2` [Example 38, (S)-6-((5-(6-amino-4,6-dihydrospiro[cyclopenta[d]thiazole-5,4'-piperidin]-1'-yl)pyrazin-2-yl)thio)-5-chloro-3-phenylquinazolin-4(3H)-one], for which the IC50 with H358 cells is under 10 nM.
